The record followed here is paper PMC13652807, “A co-evolved peptide-GPCR system senses host entry to drive fungal infection” (Nature Communications, 2026).

One may read the EC50 as the concentration that produces a half-maximal response.

One test deals with T1, wild-type Gpe1 (Mycosarcoma maydis, UniProt A0A0D1E6B3).
T1 construct: expressed in transfected cells; host or cells: Saccharomyces cerevisiae JTy014-derived reporter strain, plasmid pIL0186 (pRS416 backbone)
T1 sequence (A0A0D1E6B3 1-435): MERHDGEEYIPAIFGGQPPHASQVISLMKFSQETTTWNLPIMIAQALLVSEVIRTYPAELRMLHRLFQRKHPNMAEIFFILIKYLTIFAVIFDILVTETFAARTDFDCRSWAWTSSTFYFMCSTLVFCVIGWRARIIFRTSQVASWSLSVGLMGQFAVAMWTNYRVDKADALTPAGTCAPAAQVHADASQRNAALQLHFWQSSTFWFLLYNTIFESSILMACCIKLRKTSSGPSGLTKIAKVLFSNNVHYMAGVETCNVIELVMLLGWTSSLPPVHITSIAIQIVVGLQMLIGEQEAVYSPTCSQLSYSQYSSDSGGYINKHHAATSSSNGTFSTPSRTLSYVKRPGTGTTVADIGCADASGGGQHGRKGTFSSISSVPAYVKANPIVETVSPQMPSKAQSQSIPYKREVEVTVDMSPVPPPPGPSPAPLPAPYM
Description: Dose-response of synthetic peptide in yeast reporter assay, wild-type Gpe1. The settings on record: for EC50: 9 concentrations up to 15 µM, fluorescence after 20 h, four-parameter fit, Fig. 2b/2d, mean of three independent biological experiments. The test is classed as cell-based, Ustilago maydis. On the procedure: Experiments were performed in 96-well microtiter plates using a microplate reader (Tecan), and OD600 and red fluorescence were measured after 20 h. A four-parameter non-linear regression model (curve fit) was used using Prism (GraphPad 5): Agonist concentration vs. response (variable slope). After analysis, EC50, basal activation, maximal activation and the Hill coefficient was extracted as previously described.
In general terms: In a reporter assay the amount or activity of a reporter protein is the signal.

The target in another test is T2, Gpe1N246D+N247G (Mycosarcoma maydis, UniProt A0A0D1E6B3, N246D/N247G).
T2 construct: expressed in transfected cells; host or cells: Saccharomyces cerevisiae reporter strain, plasmid pIL0351 (made from pIL0186)
T2 sequence (A0A0D1E6B3 1-435 N246D/N247G): T1 sequence (A0A0D1E6B3 1-435) with N246D, N247G
Description: Dose-response in yeast reporter assay, Gpe1 N246D+N247G. The test is classed as cell-based, Ustilago maydis. The conditions noted are these: Fig. 4e; receptor variant N246D+N247G; read-out: apparent EC50. On the procedure:
(§1) To test the functional relevance of this putative TM3–TM6 activation module, we generated Gpe1 variants targeting R133 and the adjacent TM6 residues N246 and N247 (Supplementary Fig. 5). Gpe1 variant activation was analyzed by the yeast reporter system. […] However, reduced activity of individual variants may also reflect effects on receptor stability or intracellular trafficking competence.
(§2) For the plasmid constructions, standard molecular cloning strategies and techniques were applied. For GPCR expression in S. cerevisiae, the ScSte2 expression vector pRS416[22] was digested with SpeI and XhoI to remove the ScSte2 gene. The pure backbone vector was used for classical restriction-ligation (T4 ligase) to clone the GPCR genes inside using unique restriction sites (SpeI and XhoI) added in the PCR gene amplification. For plasmid amplification, recombinant plasmids were transformed in chemically competent E. coli Top10 cells. […]
(§3) For dose response curves, 9 different concentrations (15 μM and […] five-fold dilutions starting at 8 μM peptide, sterile water was used as no peptide control) of the specific synthetic peptide were used. Experiments were performed in 96-well microtiter plates using a microplate reader (Tecan), and OD600 and red fluorescence were measured after 20 h. […]

Another test concerns the target T3, Gpe1N246L+N247L (Mycosarcoma maydis, UniProt A0A0D1E6B3, N246L/N247L).
T3 construct: expressed in transfected cells; host or cells: Saccharomyces cerevisiae reporter strain, plasmid pIL0350 (made from pIL0186)
T3 sequence (A0A0D1E6B3 1-435 N246L/N247L): T1 sequence (A0A0D1E6B3 1-435) with N246L, N247L
In words: Dose-response in yeast reporter assay, Gpe1 N246L+N247L. The test is classed as cell-based, Ustilago maydis. The conditions noted are these: Fig. 4e; receptor variant N246L+N247L. On the procedure:
as §1, §2, §3

For a further test, the target named is T4, Gpe1R133A (Mycosarcoma maydis, UniProt A0A0D1E6B3, R133A).
T4 construct: expressed in transfected cells; host or cells: Saccharomyces cerevisiae reporter strain, plasmid pIL0373 (made from pIL0186)
T4 sequence (A0A0D1E6B3 1-435 R133A): T1 sequence (A0A0D1E6B3 1-435) with R133A
Description: Dose-response in yeast reporter assay, Gpe1 R133A. Format: cell-based, Ustilago maydis. The conditions noted are these: Fig. 4e; receptor variant R133A. How it is done:
as §1, §2, §3

Test [1] has as its target G-protein-coupled receptor promoting fungal in planta expansion 1 (Gpe1) (Ustilago maydis).
The test system of another test is S. cerevisiae Ste2. In words: GPCR activation assay in S. cerevisiae, positive control. The test is classed as cell-based, Saccharomyces cerevisiae. The settings on record: 10 µM α-factor, full agonist positive control; set to 100 %. From the text:
Three extra- and intracellular loops connect the TMs, with the N-terminal 35 residues and the 38 residues of the second extracellular loop (ECL2) forming an extracellular extension (Fig. 1b). ECL2 is also predicted to be connected to TM3 via a disulfide bond formed by Cys178 and Cys108 (Fig. 1b), a hallmark of many rhodopsin-class GPCRs[21]. To enable ligand identification, Gpe1 was then expressed in an engineered Saccharomyces cerevisiae strain to test receptor activation through production of a fluorescent reporter. This strain is devoid of both endogenous mating GPCR genes (STE2 and STE3), all pheromone genes (MFA1/2 and MFALPHA1/MFALPHA2), BAR1, SST2 and FAR1[22]. And carries an unmodified version of ScGPA1, which is the homolog of U. maydis Gpa1[23]. The coupling of ScGPA1 with Gpe1, and later MAPK pathway activation, lead to the induction of a red fluorescent protein (yEmRFP) under control of the FUS1 promoter serves as readout. Western blot analysis confirmed expression of Gpe1 in S. cerevisiae (Supplementary Fig.1b).
The activation assays for each GPCR were performed as previously described with slight modifications. […] Experiments were performed in 96-well microtiter plates using a microplate reader (Tecan), and OD600 and red fluorescence were measured after 8 h. Experiments were run in triplicate.

Test [2] deals with UmGpe1 (Gpe1, UMAG_01374). In words: GPCR activation assay in S. cerevisiae (yEmRFP reporter under FUS1 promoter), added protein/peptides. Format: cell-based, Ustilago maydis.
Description: To enable ligand identification, Gpe1 was then expressed in an engineered Saccharomyces cerevisiae strain to test receptor activation through production of a fluorescent reporter[22]. This strain is devoid of both endogenous mating GPCR genes (STE2 and STE3), all pheromone genes (MFA1/2 and MFALPHA1/MFALPHA2), BAR1, SST2 and FAR1[22]. And carries an unmodified version of ScGPA1, which is the homolog of U. maydis Gpa1[23]. The coupling of ScGPA1 with Gpe1, and later MAPK pathway activation, lead to the induction of a red fluorescent protein (yEmRFP) under control of the FUS1 promoter serves as readout.
The activation assays for each GPCR were performed as previously described with slight modifications[22]. […] Experiments were performed in 96-well microtiter plates using a microplate reader (Tecan), and OD600 and red fluorescence were measured after 8 h. Experiments were run in triplicate.
The mixture of tryptic-digested UmPit2 peptides were subjected to separation with a binary gradient of from 5 % to 95 % acetonitrile with a flowrate of 2 mL/min on an HPLC system (Agilent) for 60 min operated in a C-18 reverse phase column. The injection point was after 2 min and while the separation process was running, 2 mL sample was collected until fraction number 50. […]

Residue numbers refer to the chain shown, from its start. Where a SMILES comes first, the peptide text is derived from it.

Take `CC(C)C[C@H](NC(=O)[C@H](CO)NC(=O)CNC(=O)[C@@H](NC(=O)[C@H](Cc1ccccc1)NC(=O)CNC(=O)[C@H](Cc1ccccc1)NC(=O)[C@H](Cc1c[nH]c2ccccc12)NC(=O)[C@@H](N)Cc1c[nH]c2ccccc12)[C@@H](C)O)C(=O)O` [Pit2.5] (H-WWFGFTGSL-OH): the EC50 at wild-type Gpe1 is 0.08 µM; at Gpe1N246D+N247G it was 0.4 µM; on Gpe1N246L+N247L it was greater than 15 µM; on Gpe1R133A, greater than 15 µM. Compound Pit2.5-G07L (peptide) gave an EC50 of the yEmRFP reporter in S. cerevisiae, dose response with synthetic peptide; maximum fluorescence reduced in test [1] of 0.023 µM. Consider AWFGFTGSL [pit2.13], for which, at wild-type Gpe1 (Fig. 2d), the “Receptor activation in dose-response (in words)” value is on record as “abolished receptor activation”.

In the test with UhGpe1 (Ustilago hordei), SrPit2 peptide displayed an activation level (% activity) in the S. cerevisiae biosensor assay of 45%. For the compound Pit2.5 (…) (peptide), in test [1], the EC50 of the yEmRFP reporter in S. cerevisiae, dose response with synthetic peptide came out at 0.08 µM. In the test with UhGpe1 (Ustilago hordei), the activation level (% activity) in the S. cerevisiae biosensor assay was found to be 30%. Regarding α-factor, the “Ste2 activation, fluorescence level (normalization reference)” value in the test with S. cerevisiae Ste2 was 100%. As to WWFGFTGSLGK, the “Identification as Gpe1 agonist” value in test [2] (peptide fractionation of tryptic Pit2 digest and mass spectrometry) is listed as “Gpe1 agonist”. On to “Pit2: purified recombinant U. maydis effector protein Pit2 (UMAG_01375) lacking its signal peptide”, for which the “Gpe1 activation level, fluorescence normalized to the Ste2 activation being 100 %” value in test [2] (100 µM purified full-length Pit2 lacking signal peptide, red fluorescence after 8 h, mean of three independent biological experiments) was ~ 25%.

`CC(C)C[C@H](NC(=O)[C@H](CO)NC(=O)[C@H](CC(C)C)NC(=O)[C@@H](NC(=O)[C@H](Cc1ccccc1)NC(=O)CNC(=O)[C@H](Cc1ccccc1)NC(=O)[C@H](Cc1c[nH]c2ccccc12)NC(=O)[C@@H](N)Cc1c[nH]c2ccccc12)[C@@H](C)O)C(=O)O` [pit2.17] (H-WWFGFTLSL-OH) had an EC50 on wild-type Gpe1 of 0.023 µM.
